Test system: MCL-1ΔNΔC
Assay: Competitive fluorescence polarization binding screen, FITC-MCL-1 SAHB/MCL-1ΔNΔC
Conditions: selectivity for MCL-1ΔNΔC over BCL-XLΔC (BCL-XL % Bound minus MCL-1 % Bound)

| Spec Values | SMILES |
| --- | --- |
| 52.25 | O=C(/C=C/c1ccco1)NC(=S)Nc1ccccc1C(F)(F)F |
| 48.1 | Cc1cc(NC(=O)/C=C/c2ccco2)n(-c2nc3ccccc3n2Cc2cccc(Oc3ccccc3)c2)n1 |
| 70.38 | CC1CCN(C2=NN3C(=N)/C(=C\c4ccc(SCc5ccco5)o4)C(=O)N=C3S2)CC1 |
| 49.2! | CCSC1=C(C#N)C(=O)NC(c2ccc(N(C)C)cc2)S1 (stereo not shown) |
| 48.92 | Cc1c(Cl)cccc1N1C(=O)CC(N2CCCc3ccccc32)C1=O (stereo not shown) |

The remaining lines, values behind:

| SMILES | Spec Values |
| --- | --- |
| O=c1c(O)c(-c2ccc(O)c(O)c2)oc2cc(O)cc(O)c12 | 88.65 |
| O=C(/C=C/c1ccc(Br)o1)OCC(=O)c1c[nH]c2ccccc12 | 52.14 |
| COc1ccc(-c2nc3scc(CCNC(=O)/C=C/c4ccco4)n3n2)cc1 | 46.24 |
| O=C(CCN1C(=O)/C(=C\C=C\c2ccco2)SC1=S)Nc1ccc(C(=O)O)c(O)c1 | 54.54 |
| Cc1ccc(C)n1-c1cc(Cl)ccc1C(=O)O | 79.84 |
| Oc1cccnc1NC(c1ccc(F)cc1)c1ccc2cccnc2c1O (stereo not shown) | 71.24 |
| C/C(=N\OCc1ccc(C(=O)N2CCCCC2)o1)c1cccc(C(F)(F)F)c1 | 55.34 |
| CN1CCN(C(c2ccccn2)c2c(-c3ccccc3)n(O)c3ccccc23)CC1 (stereo not shown) | 49.28 |
| COc1cc(C(c2nnnn2C2CCCCC2)N2CCc3ccccc3C2)ccc1O (stereo not shown) | 48.33 |
| Cc1ccc(/C=C2\C(=O)Nc3ccc(Br)cc32)o1 [drawing 54] | 58.85 |
| Cc1ccc(/C=C2\C(=O)Nc3ccc(Br)cc32)o1 [drawing 279] | 58.85 |

Target: BCL-XLΔC (Homo sapiens, UniProt Q07817)
Assay: Competitive fluorescence polarization binding screen, FITC-BAD BH3/BCL-XLΔC
Conditions: FITC-BAD BH3/BCL-XLΔC interaction

BCL-XLΔC, sequence (Q07817 1-212 limits assumed, stated change not applied): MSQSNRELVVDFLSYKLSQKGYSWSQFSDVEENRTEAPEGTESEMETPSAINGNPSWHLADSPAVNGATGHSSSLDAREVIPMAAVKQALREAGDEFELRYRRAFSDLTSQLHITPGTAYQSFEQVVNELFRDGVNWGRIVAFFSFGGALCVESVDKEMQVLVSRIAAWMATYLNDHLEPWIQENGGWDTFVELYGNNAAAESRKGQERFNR

| BCL-XL % Bound | SMILES |
| --- | --- |
| 79.88% | CCN(CC)c1cc(C)c2cc(NC(=O)/C=C/c3ccco3)ccc2n1 |
| 263.7% | COc1ccc(/C=c2\s/c(=C\C(=O)c3ccco3)[nH]c2=O)cc1O |

Second part, the compound before the results:

| SMILES | BCL-XL % Bound |
| --- | --- |
| O=C(/C=C/c1ccc(Br)o1)OCC(=O)c1c[nH]c2ccccc12 | 105.6% |
| CCSC1=C(C#N)C(=O)NC(c2ccc(O)cc2)S1 (stereo not shown) | 84.82% |

Target: T1, MCL-1ΔNΔC (Homo sapiens, UniProt Q07820)
Assay: Competitive fluorescence polarization binding screen, FITC-MCL-1 SAHB/MCL-1ΔNΔC
Set-up: the C-terminal alpha-helix was deleted from each of these constructs to facilitate protein expression and purification; an additional N-terminal deletion of MCL-1 was performed; GST (N, cleaved yes); made in house
Conditions: FITC-MCL-1 SAHB/MCL-1ΔNΔC interaction

T1 sequence (Q07820 172-320 limits assumed, stated change not applied): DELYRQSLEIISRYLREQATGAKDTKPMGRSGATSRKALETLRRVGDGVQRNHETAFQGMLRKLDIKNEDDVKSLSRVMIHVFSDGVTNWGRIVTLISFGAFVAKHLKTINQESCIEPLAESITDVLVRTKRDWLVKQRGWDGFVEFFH

| MCL-1% Bound | SMILES |
| --- | --- |
| 11.73% | CCN(CC)c1cc(C)c2cc(NC(=O)/C=C/c3ccco3)ccc2n1 |
| 14.5% | Cc1ccc2c(c1C)NC(C(=O)O)C1CC=CC21 (stereo not shown) |
| 18.74% | Cc1ccc(/C=C2\C(=O)Nc3ccc(Br)cc32)o1 [drawing 54] |

Target: T1, MCL-1ΔNΔC
Assay: not given
Conditions: pre-incubation, dilution, re-concentration, FITC-BID BH3 FP

| SMILES | mode of binding to MCL-1ΔNΔC (reversible/non-covalent vs covalent) |
| --- | --- |
| Cc1cc2c(C(C)C)c(O)c(O)c(C=O)c2c(O)c1-c1c(C)cc2c(C(C)C)c(O)c(O)c(C=O)c2c1O [Gossypol] | bound reversibly |

Same assay, conditions: pre-incubation, dilution, re-concentration, FITC-BID BH3 FP; listed as 1570G15

| SMILES | mode of binding to MCL-1ΔNΔC (reversible/non-covalent vs covalent) |
| --- | --- |
| Cc1cc2c(C(C)C)c(O)c(O)c(C=O)c2c(O)c1-c1c(C)cc2c(C(C)C)c(O)c(O)c(C=O)c2c1O [Gossypol] | engages MCL-1 through non-covalent interactions |
